From patent US20250281497A1, “FUSED AMINO PYRIMIDINE COMPOUNDS FOR TREATMENT OF SEIZURE DISORDERS” (Ovid Therapeutics Inc., priority 2024, published 2025)

How the values were obtained:
KCC2 = target: T1, KCC2 (Homo sapiens, UniProt Q9H2X9); assay: Surface biotinylation of KCC2 in HEK-293 cells; assay type: cell-based; settings: 15 min
T1 construct: expressed in transfected cells; host or cells: HEK-293 (ATCC CRL-1573)
T1 sequence (Q9H2X9 1-1116 isoform Q9H2X9-2): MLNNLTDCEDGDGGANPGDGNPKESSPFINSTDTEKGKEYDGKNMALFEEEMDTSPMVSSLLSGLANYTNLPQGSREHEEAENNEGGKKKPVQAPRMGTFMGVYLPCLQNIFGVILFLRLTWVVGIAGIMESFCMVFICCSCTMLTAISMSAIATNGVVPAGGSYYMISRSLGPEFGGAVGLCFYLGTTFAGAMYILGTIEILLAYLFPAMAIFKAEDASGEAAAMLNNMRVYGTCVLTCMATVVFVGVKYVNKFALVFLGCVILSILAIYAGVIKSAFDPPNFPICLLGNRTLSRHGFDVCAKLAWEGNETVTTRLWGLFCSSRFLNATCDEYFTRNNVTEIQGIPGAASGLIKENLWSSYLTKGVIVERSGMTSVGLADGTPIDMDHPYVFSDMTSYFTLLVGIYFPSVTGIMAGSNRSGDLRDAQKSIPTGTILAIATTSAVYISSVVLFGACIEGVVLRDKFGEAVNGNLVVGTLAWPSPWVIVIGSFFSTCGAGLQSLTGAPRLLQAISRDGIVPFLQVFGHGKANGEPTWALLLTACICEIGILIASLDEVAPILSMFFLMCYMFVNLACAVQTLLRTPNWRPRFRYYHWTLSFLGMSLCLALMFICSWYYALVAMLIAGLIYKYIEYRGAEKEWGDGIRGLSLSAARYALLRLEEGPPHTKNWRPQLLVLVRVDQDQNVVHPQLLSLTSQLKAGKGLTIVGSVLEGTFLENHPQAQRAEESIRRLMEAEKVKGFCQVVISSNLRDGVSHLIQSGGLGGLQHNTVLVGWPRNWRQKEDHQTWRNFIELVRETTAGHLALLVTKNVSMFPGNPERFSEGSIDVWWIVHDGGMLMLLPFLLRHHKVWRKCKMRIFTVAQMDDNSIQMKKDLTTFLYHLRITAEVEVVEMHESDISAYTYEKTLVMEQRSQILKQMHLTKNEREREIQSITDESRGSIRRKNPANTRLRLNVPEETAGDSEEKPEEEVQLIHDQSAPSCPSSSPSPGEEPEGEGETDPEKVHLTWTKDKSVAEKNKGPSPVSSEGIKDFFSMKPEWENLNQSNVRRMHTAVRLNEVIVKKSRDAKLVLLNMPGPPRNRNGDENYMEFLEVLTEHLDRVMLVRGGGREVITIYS
Experimental: Cell Culture and biotinylation. HEK-293 cells were purchased from ATCC (CRL-1573) and transfected with human KCC2 and GFP expression plasmids using Lipofectamine 2000. Cells were utilized for experimentation 48-72h following transfection. Cells were biotinylated at 4° C. using NHS-Biotin. Following lysis and purification on immobilized avidin beads, cell surface and total fractions were subject to immunoblotting as outlined previously (Conway et al., 2017, supra).
The reliability of the biotinylation procedure was assessed via immunoblotting with antibodies against the cytosolic protein actin. Actin was present in the total lysates but was absent from the surface fractions (FIG. 2C).

KA induced SE = assay: KA induced ongoing SE, EEG recording, treatment 2h after KA; assay type: in vivo, mice; settings: treatment 2h after KA
Experimental: EEG recordings and analysis. WT C57Bl/6J adult male mice (12 weeks) were anesthetized with isofluorane and implanted with EEG/EMG electrodes and allowed to recover for 7 days prior to experimentation. […] 2h following KA administration mice were injected with a saturating concentration of diazepam (DZ) 10 mg/kg (IP) and recordings were extended for a further 60 min. […] LabChart 8 software was used for data analysis. Epileptiform activity was identified by changes in the amplitude of electrographic activity characterized by consistent changes in the power of the Fast Fourier transform (FFT) of the EEG and abnormal activity characterized by periods of rhythmic spiking lasting longer than 30s (Moore et al., 2017, supra; Silayeva et al., 2015, supra; Sivakumaran et al., J. Neurosci. 35, 8291-8296 (2015)).
To evaluate the potential of KCC2 activators to terminate ongoing SE, the KA model described above was employed. Mice were injected with KA (20 mg/Kg; IP). […] Spectral data were then subjected to FFT and the total EEG power between 1-100 Hz of the 2h following KA treatment (pre-drug) and 30 min following their injection (post-drug) were compared (FIG. 6B). In mice treated with DZ alone variable effects were observed, from large increases to modest reductions in EEG power, but these effects were not significant (FIG. 6C; pre=1.1±0.2×10^−6, post=4.4±7.4×10^−7 μV^2, p=0.214, n=13-14 mice). […] The latency of the treatments to modify EEG power was examined by measuring the time taken for this parameter to be reduced to 50% (FIG. 6E). […] Finally in mice treated with DZ alone 62% were insensitive to the effects of this agent on EEG power.

[1] = parameters: species or system mice; settings: in vivo
brain slices = assay: In vitro seizure assay, brain slices in 0-Mg ACSF, field recording in entorhinal cortex; parameters: species or system mice; settings: Compound A 1 μM
Text: In vitro seizure assays. […] Slices were then transferred to a Warner Instruments recording chamber and electrodes of 0.5-1 mohm were inserted into layer IIII of the medial entorhinal cortex, several cell layers deep. […] The field recordings were then employed to monitor the development of seizure-like events (SLEs) and their transition to late recurrent discharges (LRDs) which are believed to be analogous to the development of status epilepticus (SE) (Kelley et al., 2016, supra; Moore et al., 2018, supra).

## C[C@@H]1CN(c2nc3c(c(Nc4ccc(C5CCCCC5)cc4)n2)COC3)CCO1 [Compound A, (R)—N-(4-cyclohexylphenyl)-2-(2-methylmorpholino)-5,7-dihydrofuro[3,4-d]pyrimidin-4-amine]
KCC2; 0.3 μM
  KCC2 on the plasma membrane (surface/total): 94.5±8.4 % of control
KCC2; 3 μM
  KCC2 on the plasma membrane (surface/total): 104.7±8.4 % of control
KA induced SE
  mice insensitive to DZ effects on EEG power: abolished
[1]
  gross effects on mouse behavior, open field: no gross effects on mouse behavior
Brain slices; vehicle=10.5±2.6
  time to first seizure-like event (SLE): 11.3 ± 3.3 min
Brain slices; vehicle=12.4±4.1
  time to late recurrent discharges (LRDs): 28.4 ± 6.4 min
